Results as given in US20240309342A1, “QUORUM QUENCHING ENZYME, AND METHODS OF USING SAME” (MIGAL GALILEE RESEARCH INSTITUTE LTD., priority 2021, published 2024).

What follows are molecules tested on moLRP (marine origin Lactonase Related Protein), putative AHL lactonase of the PTE-Like-Lactonase (PLL) family from marine metagenomes, recombinant with 6×His … (assay: AHL lactonase activity of purified moLRP (hydrolysis of N-acyl homoserine lactones, Michaelis-Menten kinetics, pH indicator cresol purple)). Settings: hydrolysis of AHLs by moLRP; Table 1; FIG. 3 (C4-HSL): E0=0.4 μM, 27° C.; error = standard deviation, at least three independent measurements.
Assay type: biochemical, marine metagenome (Tara Oceans); MAG of phylum Chloroflexi
CCCCCCC(=O)N[C@H]1CCOC1=O [C7-HSL, N-heptanoyl-L-homoserine lactone] showed a Km of 112 ± 19 µM and a kcat of 0.230 ± 0.02 s⁻¹. CCCC(=O)CC(=O)N[C@H]1CCOC1=O [3-Oxo C6-HSL, N-(3-oxohexanoyl)-L-homoserine lactone] gave a Km of 150 ± 13 µM and a kcat of 1.30 ± 0.10 s⁻¹. Molecule CCCCCC(=O)CC(=O)NC1CCOC1=O (racemic) [3-Oxo C8-HSL, N-(3-oxooctanoyl)-DL-homoserine lactone] has a Km of 74.8 ± 11 µM and a kcat of 0.519 ± 0.02 s⁻¹. Work on CCCC(=O)N[C@H]1CCOC1=O [C4-HSL, N-butyryl-L-homoserine lactone] yielded a Km of 96.5 ± 15.3 µM and a kcat of 1.85 ± 0.11 s⁻¹.
